Legend:
[1] = test system: HLA-A*02:01 transgenic mouse; experiment: Test 14: in vivo adjuvant activity, cocktail vaccine i (oily suspension formulation), IFNγ ELISPOT; conditions: added to cocktail vaccine i (oily suspension formulation); 0.04 nmol or 0.4 nmol per body, twice; FIG. 15 and 16
Method: (§1) Evaluation of In Vivo Adjuvant Activity in HLA-A*02:01 Transgenic Mouse
The in vivo adjuvant activity of the compound of Example 1 was evaluated in the following procedure. To a cocktail vaccine (oily suspension formulation) comprising Compound of formula 4 prepared in Reference example 8 and Peptide SEQ ID No. 3 prepared in Reference example 3 (hereinafter, referred to as “cocktail vaccine i”) was added the compound prepared in Example 1 to prepare a vaccine. The vaccine was administered to a HLA-A*02:01 transgenic mouse, and the adjuvant activity of the vaccine was evaluated by the method of testing antigen-specific CTL induction.
For example, the above oily suspension formulation was prepared as follows. […]
Cocktail vaccine i was injected to mice intradermally at the tail base area in an amount for administering 300 μg of Compound of formula 4 per body and 225 μg of Peptide SEQ ID No. 3 per body. […] Then, after removal of the supernatant from the wells, stained spots on the ELISPOT plate were counted.

[2] = test system: HLA-A*02:01 transgenic mouse; experiment: Test 7: in vivo adjuvant activity, vaccine d (Peptide SEQ ID No. 5), IFNγ ELISPOT; conditions: added to vaccine d; 330 ng per body, once; FIG. 4
Method: as §1
The in vivo adjuvant activity of the compound of Example 1 was evaluated in the following procedure. To a vaccine prepared by mixing Peptide SEQ ID No. 5 prepared in Reference example 5 with Montanide ISA 51 VG (hereinafter, referred to as “vaccine d”) was added the compound prepared in Example 1 to prepare a vaccine. The vaccine was administered to a HLA-A*02:01 transgenic mouse, and the adjuvant activity of the vaccine was evaluated by the method of testing antigen-specific CTL induction. The VLQELNVTV in Peptide SEQ ID No. 5 corresponds to an antigen peptide derived from an HLA-A*02:01-restricted Proteinase-3 protein.
The character for inducing CTLs specific to the antigen peptide (SEQ ID No. 5) by vaccine d was evaluated by measuring whether IFNγ can be produced upon stimulation of splenocytes from the mouse with the peptide. In addition, the character for exerting in vivo adjuvant activity by the compound in Example 1 was evaluated by comparing the number of CTLs induced by vaccine d and the number of CTLs induced by the vaccine prepared by adding the compound prepared in Example 1 to vaccine d, and checking presence or absence of the increase on the number.
Specifically, Peptide of SEQ ID No. 5 was dissolved in DMSO, and then diluted with water for injection to concentrations of 2 mg/mL. […]

[3] = Spleen weight in the mice tested in Tests 11-18; assay type: in vivo, mouse

CCCCCNc1nc(N)nc(C)c1Cc1ccc(CN(C)CCOCCOCCOCCOCCO)cc1OC [Example 1, 1-(4-{[2-amino-4-methyl-6-(pentylamino)pyrimidin-5-yl]methyl}-3-methoxyphenyl)-2-methyl-5,8,11,14-tetraoxa-2-azahexadecan-16-ol·trifluoroacetate]
CTL counts responsive to Peptide SEQ ID No. 1 or SEQ ID No. 4 compared with adding no compound [1]: more | CTL counts responsive to Peptide of SEQ ID No. 5 compared with adding no compound [2]: more | spleen weight ([3]; mice tested in Tests 11-13 (emulsified compositions), FIG. 26): does not induce a pronounced increase of spleen weight | spleen weight ([3]; mice tested in Tests 14 and 15 (oily suspension, hydrogel), FIG. 27): does not induce a pronounced increase of spleen weight | spleen weight ([3]; mice tested in Tests 16-18 (liposome formulations), FIG. 28): does not induce a pronounced increase of spleen weight
